The text below walks through data of US11306064B2, “Benzothia(di)azepine compounds and their use as bile acid modulators” (Albireo AB, priority 2018, dated 2022).

Holding throughout (type): cell-based
One assay concerns the target T1, Human ASBT (Homo sapiens, UniProt Q12908).
T1 construct: expressed in transfected cells; kept under Puromycin selection
T1 sequence (Q12908 1-348): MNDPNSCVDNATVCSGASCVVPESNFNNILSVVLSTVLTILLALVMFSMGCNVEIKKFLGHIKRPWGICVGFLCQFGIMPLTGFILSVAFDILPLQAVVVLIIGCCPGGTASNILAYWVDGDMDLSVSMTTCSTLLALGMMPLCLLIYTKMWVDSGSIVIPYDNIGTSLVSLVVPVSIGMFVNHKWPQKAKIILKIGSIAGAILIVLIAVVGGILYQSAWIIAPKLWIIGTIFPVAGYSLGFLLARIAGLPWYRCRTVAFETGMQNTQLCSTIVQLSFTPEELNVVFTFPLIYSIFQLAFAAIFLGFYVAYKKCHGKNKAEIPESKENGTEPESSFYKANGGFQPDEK
The assay is described as follows: ASBT (h/m) assay: 3H-taurocholic acid uptake in human ASBT-overexpressing cells. As to conditions: 0.25 μM 3H-taurocholic acid and 5 μM cold taurocholic acid, 20 minutes, read-out: hASBT IC50. As for the experimental part: ASBT (h/m) Assay Protocol
10,000 cells (Human or Mouse ASBT-overexpressing cells) were seeded in 96-wells plate (Corning CLS3809) in 200 μL MEM-alpha medium (Gibco 12571-063) supplemented with 10% FBS (Gibco 10438026) containing Puromycin (Gibco A1113803) (10 μg/mL) and incubated at 37° C. in 5% CO2 for 48 hours. After incubation, media was decanted from the wells and cells were washed two times with 300 μL of basal MEM-alpha medium (FBS-free). After decanting basal MEM-alpha medium each time, plates were tapped against paper towel to ensure maximum removal of residual media. Test inhibitor dilutions (highest test concentration being 10 μM, 3-fold serial dilution, 10 points) prepared in DMSO (Sigma D2650) were added in incubation mix (maintaining 0.2% final DMSO concentration) containing 0.25 μM 3H-taurocholic acid (ARC ART-1368) and 5 μM of cold taurocholic acid (Sigma T4009). 50 μL of incubation mix containing test inhibitors was then added to the wells (in duplicate) and the plates were incubated for 20 minutes in a CO2 incubator at 37° C. After incubation, the reaction was stopped by keeping the plates on ice water mix for 2-3 minutes and then the incubation mix was aspirated completely from the wells. The wells were washed two times with 250 μL of chilled unlabelled 1 mM taurocholic acid dissolved in HEPES (Gibco 15630080)-buffered (10 mM) HBSS (Gibco 14175079) (pH 7.4). The plates were tapped against a paper towel after every wash to ensure maximum removal of blocking buffer.
100 μL of MicroScint-20 (PerkinElmer 6013621) was added to the wells and kept overnight at room temperature before reading the plates in TopCount NXT™ Microplate Scintillation and Luminescence Counter from PerkinElmer under 3H Test protocol (set at 120 seconds reading time per well).
(§1) Preparation of Test Compound Dilutions
(§2) All test compounds were provided in powder form at room temperature. 10 mM DMSO stocks of the test compounds were prepared, aliquoted and stored at −20° C. From the 10 mM DMSO stock of the compounds, a 3-fold serial dilution in DMSO was prepared to get a total of 10 dilutions of the test compounds. 0.5 μL of this dilution in DMSO was added to 250 μL of FBS-free basal media containing 3H-taurocholic acid and cold taurocholic acid to prepare the incubation mixture.

Another assay deals with HepaRG cells. The experiment in a line: HepaRG-based assay: 3H-taurocholic acid uptake in differentiated HepaRG cells. Conditions: Homo sapiens, HepaRG, 0.3 μM 3H-taurocholic acid and 7.5 μM cold taurocholic acid, 30 minutes. As to the method: HepaRG-Based Assay Protocol
A cryopreserved vial of differentiated HepaRG cells (Biopredic International HPR116080) was thawed in HepaRG Thawing/Plating/General Purpose Medium (Biopredic International ADD670C) supplemented with 200 mM Glutamax (Gibco 35050061) following the protocol provided by Biopredic International. 70,000 cells per well were seeded in 96-wells plate (Corning CLS3809) in 100 μL of HepaRG Thawing/Plating/General Purpose Medium supplemented with 200 mM Glutamax and incubated at 37° C. in 5% CO2 for 24 hours. Post incubation, the seeding media was replaced by HepaRG Maintenance/Metabolism Medium (Biopredic International ADD620C) and incubated for 6 days, with fresh HepaRG Maintenance/Metabolism Medium replenishment every 48 hours. After 7 days incubation post seeding, incubation media was decanted from the wells and cells were washed two times with 250 μL of William's E Basal Media (Gibco 12551032). After decanting William's E Basal Media each time, plates were tapped against paper towel to ensure maximum removal of residual media.
Incubation mix was prepared by adding test inhibitor dilutions (3-fold serial dilution in DMSO (Sigma D2650)) in William's E media (basal) containing 0.3 μM 3H-taurocholic acid (ARC ART-1368) and 7.5 μM cold taurocholic acid (Sigma T4009) (maintaining 0.2% final DMSO concentration). 50 μl of incubation mix containing test inhibitors was then added to the wells (in duplicate) and the plates were incubated for 30 minutes in 5% CO2 incubator at 37° C. After incubation, the reaction was stopped by keeping the plates on ice water mix for 2-3 minutes and then the incubation mix was aspirated completely from the wells. The wells were washed two times with 250 μL of chilled unlabelled 1 mM taurocholic acid dissolved in HEPES (Gibco 15630080)-buffered (10 mM) HBSS (Gibco 14175079) (pH 7.4). The plates were tapped against a paper towel after every wash to ensure maximum removal of blocking buffer.
100 μL of MicroScint-20 (PerkinElmer 6013621) was added to the wells and kept overnight at room temperature before reading the plates in TopCount NXT™ Microplate Scintillation and Luminescence Counter from PerkinElmer under 3H Test protocol (set at 120 seconds reading time per well, with normal plate orientation).
as §1, §2

The next assay addresses T2, Human LBAT (Homo sapiens, UniProt Q14973).
T2 construct: expressed in transfected cells; kept under Geneticin selection
T2 sequence (Q14973 1-349): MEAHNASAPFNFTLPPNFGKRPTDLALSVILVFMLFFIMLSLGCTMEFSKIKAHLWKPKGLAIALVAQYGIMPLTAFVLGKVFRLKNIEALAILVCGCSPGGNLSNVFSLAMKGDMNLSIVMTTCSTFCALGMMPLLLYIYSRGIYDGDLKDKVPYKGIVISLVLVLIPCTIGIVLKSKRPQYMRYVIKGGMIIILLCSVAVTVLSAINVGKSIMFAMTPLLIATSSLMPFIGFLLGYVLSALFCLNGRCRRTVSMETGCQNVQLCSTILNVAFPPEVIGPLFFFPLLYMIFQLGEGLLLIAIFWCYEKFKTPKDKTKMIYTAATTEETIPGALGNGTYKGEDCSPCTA
The experiment in a line: LBAT (h/m) assay: 3H-taurocholic acid uptake in human LBAT-overexpressing cells. As to conditions: 0.3 μM 3H-taurocholic acid and 7.5 μM cold taurocholic acid, 20 minutes, read-out: hLBAT IC50. A digest of the protocol: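 LBAT-overexpressing cells, serum-free MEM-alpha, 20 min at 37° C with inhibitor (3-fold, 10-point) plus 0.3 μM 3H-taurocholic acid and cold taurocholic acid (7.5 μM human; 25 μM mouse), 0.2% DMSO. Stopped on ice, washed with 1 mM unlabelled taurocholate; uptake by scintillation counting.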

As for `CCCCC1(CC)CN(c2ccccc2)c2cc(SC)c(O/C=C/C(=O)O)cc2S(=O)(=O)C1` (racemic) [Example 16, (E)-3-((3-butyl-3-ethyl-7-(methylthio)-1,1-dioxido-5-phenyl-2,3,4,5-tetrahydro-1,5-benzothiazepin-8-yl)oxy)acrylic Acid], the IC50 was 33 nM on Human ASBT, 1030 nM with HepaRG cells and 82 nM on Human LBAT.

Regarding `CCCCC1(CC)CN(c2ccccc2)c2cc(SC)c(O/C=C(\F)C(=O)O)cc2S(=O)(=O)C1` (racemic) [Example 41, (Z)-3-((3-butyl-3-ethyl-7-(methylthio)-1,1-dioxido-5-phenyl-2,3,4,5-tetrahydro-1,5-benzothiazepin-8-yl)oxy)-2-fluoroacrylic Acid], the IC50 amounted to 26 nM on Human ASBT, 336 nM with HepaRG cells and 8.3 nM at Human LBAT.

For the molecule `CCCCC1(CC)CN(c2ccccc2)c2cc(Cl)c(O/C=C(\F)C(=O)O)cc2S(=O)(=O)C1` (racemic) [Example 46, (Z)-3-((3-butyl-7-chloro-3-ethyl-1,1-dioxido-5-phenyl-2,3,4,5-tetrahydro-1,5-benzothiazepin-8-yl)oxy)-2-fluoroacrylic Acid], the IC50 on Human ASBT turned out to be 97 nM; in the assay with HepaRG cells, 590 nM; on Human LBAT, 24 nM.

Take `CCCCC1(CC)CN(c2ccccc2)c2cc(Cl)c(O/C=C/C(=O)O)cc2S(=O)(=O)C1` (racemic) [Example 49, (E)-3-((3-butyl-7-chloro-3-ethyl-1,1-dioxido-5-phenyl-2,3,4,5-tetrahydro-1,5-benzothiazepin-8-yl)oxy)acrylic Acid]: the 50% inhibitory concentration (IC50) amounted to 220 nM on Human ASBT, 570 nM in the assay with HepaRG cells and 94 nM at Human LBAT.

With `CCCCC1(CC)CN(c2ccccc2)c2cc(Br)c(O/C=C(\F)C(=O)O)cc2S(=O)(=O)C1` (racemic) [Example 63, (Z)-3-((7-bromo-3-butyl-3-ethyl-1,1-dioxido-5-phenyl-2,3,4,5-tetrahydro-1,5-benzothiazepin-8-yl)oxy)-2-fluoroacrylic Acid], the concentration for half-maximal inhibition (IC50) turned out to be 35 nM at Human ASBT, 358 nM in the assay on HepaRG cells and 10 nM on Human LBAT.

As for `CCCCC1(CC)CN(c2ccccc2)c2cc(SC)c(O/C=C(\F)C(=O)O)cc2S(=O)(=O)N1` (racemic) [Example 84, (Z)-3-((3-butyl-3-ethyl-7-(methylthio)-1,1-dioxido-5-phenyl-2,3,4,5-tetrahydro-1,2,5-benzothiadiazepin-8-yl)oxy)-2-fluoroacrylic Acid], the IC50 at Human ASBT is 28 nM; with HepaRG cells, 559 nM; at Human LBAT, 31 nM.

In the case of `CCCCC1(CC)CN(c2ccccc2)c2cc(SC)c(O/C=C/C(=O)O)cc2S(=O)(=O)N1C` (racemic) [Example 88, (E)-3-((3-butyl-3-ethyl-2-methyl-7-(methylthio)-1,1-dioxido-5-phenyl-2,3,4,5-tetrahydro-1,2,5-benzothiadiazepin-8-yl)oxy)acrylic Acid], the half-maximal inhibitory concentration (IC50) amounted to 2250 nM on Human ASBT, 1150 nM with HepaRG cells and 70 nM on Human LBAT.

`CCCCC1(CC)CN(c2ccccc2)c2cc(SC)c(O/C=C(\F)C(=O)O)cc2S(=O)(=O)N1C` (racemic) [Example 98, (Z)-3-((3-butyl-3-ethyl-2-methyl-7-(methylthio)-1,1-dioxido-5-phenyl-2,3,4,5-tetrahydro-1,2,5-benzothiadiazepin-8-yl)oxy)-2-fluoroacrylic Acid]: the IC50 at Human ASBT was 286 nM; in the assay with HepaRG cells, 671 nM; on Human LBAT it was 22 nM.

On to `CCCCC1(CC)CN(c2ccccc2)c2cc(SC)c(O/C=C(\F)C(=O)O)cc2S(=O)(=O)C1` (single isomer, unassigned) [Example 42, (Z)-3-((3-butyl-3-ethyl-7-(methylthio)-1,1-dioxido-5-phenyl-2,3,4,5-tetrahydro-1,5-benzothiazepin-8-yl)oxy)-2-fluoroacrylic acid], for which the IC50 came out at 220 nM at Human ASBT, 378 nM with HepaRG cells and 10 nM on Human LBAT.

Regarding `CCCCC1(CC)CN(c2ccccc2)c2cc(Cl)c(O/C=C(\F)C(=O)O)cc2S(=O)(=O)C1` (single isomer, unassigned) [Example 47, (Z)-3-((3-butyl-7-chloro-3-ethyl-1,1-dioxido-5-phenyl-2,3,4,5-tetrahydro-1,5-benzothiazepin-8-yl)oxy)-2-fluoroacrylic acid], the IC50 is 339 nM at Human ASBT, 362 nM with HepaRG cells and 25 nM on Human LBAT.

In the case of `CCCCC1(CC)CN(c2ccccc2)c2cc(Cl)c(O/C=C/C(=O)O)cc2S(=O)(=O)C1` (single isomer, unassigned) [Example 50, (E)-3-((3-butyl-7-chloro-3-ethyl-1,1-dioxido-5-phenyl-2,3,4,5-tetrahydro-1,5-benzothiazepin-8-yl)oxy)acrylic acid], the figures for the IC50 at Human ASBT, in the assay with HepaRG cells and on Human LBAT were 77 nM, 339 nM and 89 nM, respectively.

As to `CCCCC1(CC)CN(c2ccccc2)c2cc(I)c(O/C=C/C(=O)O)cc2S(=O)(=O)C1` (single isomer, unassigned) [Example 57, (E)-3-((3-butyl-3-ethyl-7-iodo-1,1-dioxido-5-phenyl-2,3,4,5-tetrahydro-1,5-benzothiazepin-8-yl)oxy)acrylic acid], the IC50 stood at 361 nM at Human ASBT, 1160 nM in the assay on HepaRG cells and 137 nM at Human LBAT.
